From US7803992B2, “Methods and compositions for expressing an herbicide-tolerant polynucleotide” (Pioneer Hi-Bred International, Inc., priority 2005, dated 2010)

Columns and labels:
[1] = test system: parent elite stiff stalk inbred corn; assay: Postemergence herbicide application in greenhouse: fresh shoot weight and visual injury; format: in vivo
[2] = test system: Heterozygous GAT-HRA corn; assay: as above; format: in vivo
[3] = test system: GAT-HRA soybeans; assay: Postemergence herbicide treatment of soybeans in greenhouse, visual injury; format: in vivo, soybean; details: postemergence, glyphosate 8960, tribenuron-methyl 35, rimsulfuron 35 g/ha
Description: (§1) Young regenerated transgenic plants were sprayed with 1× glyphosate (1× rate of glyphosate is 1120 g/ha of glyphosate isopropylamine) to cull segregants. Four replications were performed for each treatment. Plants were then treated with various herbicides, including glyphosate and ALS-inhibitor herbicides.
(§2) Six soybean seeds from each variety to be assayed were planted 1 cm deep in 5.5 (13.97 cm) inch square plastic container of a synthetic growth medium. […] When possible, containers were thinned to two uniform plants. Non-transgenic lines were thinned to two uniform plants per container.
(§3) Results are expressed below in Table 11 as the mean of four replications.

[4] = test system: Wild Type soybeans (Jack); assay: as above; format: in vivo, soybean; details: postemergence, glyphosate 8960, tribenuron-methyl 35, rimsulfuron 35 g/ha
Description: as §1, §2, §3

[5] = test system: STS ® soybeans; assay: as above; format: in vivo, soybean
Description: When possible, containers were thinned to two uniform plants.

[6] = test system: GAT-HRA transgenic cotton plants; assay: Greenhouse over the top herbicide spray of cotton; format: in vivo, Gossypium hirsutum; details: glyphosate 1.5 lb acid equivalent per acre at 4-6 leaf stage; 14 days after application
Description: (§4) Transformed cotton plants were rooted and then transferred to soil for further growth. Plants were then subjected to herbicide spray treatments in a greenhouse. […] Untransformed Coker 312 control plants were dead 2 weeks after glyphosate application. […] Plants transformed with both GAT and HRA were further subjected to an “over the top” application of the sulfonylurea herbicide rimsulfuron at a rate of 16 g active ingredient/hectare. […] In further experiments 32 g ai/ha rimsulfuron were applied to the cotton.

[7] = test system: Untransformed Coker 312 cotton; assay: Greenhouse over the top herbicide spray of cotton; format: in vivo, Gossypium hirsutum; details: glyphosate 1.5 lb ae/acre, 2 weeks after application; rimsulfuron 16 g active ingredient/hectare without glyphosate
Description: as §4

[8] = test system: non-transformed GS3 embryos; assay: Glyphosate kill curve on culture media; format: cell-based, maize; details: about 40 days culture
Description: A glyphosate kill curve was established by testing non-transformed embryos response on media with different levels of glyphosate. GS3 embryos were isolated from an immature ear and placed onto media containing glyphosate at 0.0, 0.5, 1.0, and 2.0 mM. After about 40 days culture, the response of the embryos were observed and recorded. Similarly, infected GS3 embryos with the GAT construct were placed onto media containing glyphosate at 0.0, 0.5, 1.0, and 2.0 mM. After about 40 days culture, the response of the infected embryos were observed and recorded (FIG. 7).

[9] = test system: Non-glyphosate resistant Conyza (Welgevallen-paraquat resistant); assay: Control of hairy fleabane by glyphosate, metsulfuron-methyl and two additives; format: in vivo, Conyza bonariensis; details: glyphosate on its own; 10-15 leaf stage
Description: This example included the same treatments as used in Example 11, except the treatments were carried out on a glyphosate sensitive biotype of Kleinskraalhans (Conyza bonariensis). […] In this example, however, ammonium sulfate-based adjuvant (ADD-UP®) preformed better than bispyribac-sodium (VELOCITY®) with the mixture.
• Biotype: Non-glyphosate resistant Conyza (Welgevallen-paraquat resistant) • Growth Stage: 10-15 leaf stage • Condtions: Cool and sunny • Volume rate: 200 L ha^−1 • glyphosate (ROUNDUP): 360 g a.i. L^−1

[10] = Zea mays, post-emergence, […], read-out: % Visual Injury

## O=C(O)CNCP(=O)(O)O [Glyphosate, N-phosphonomethylglycine]
[1]; [10]
  pest or weed control at 200 g/ha: 100%
[1]; postemergence, 200 g/ha (glyphosate 3472 g ae/ha, glufosinate ammonium 1870 g/ha), weighed 2 weeks after treatment, mean of four replications, untreated 76.4 g
  Fresh Weight: 1.0 g
[2]; [10]
  pest or weed control at 200 g/ha: 10%
[2]; postemergence, 200 g/ha (glyphosate 3472 g ae/ha, glufosinate ammonium 1870 g/ha), weighed 2 weeks after treatment, mean of four replications, untreated 98.8 g
  Fresh Weight: 97.4 g
[3]; event 59, mean
  % Visual Injury: 38%
[3]; event 59 line 21
  % Visual Injury: 40%
[3]; event 59 line 28
  % Visual Injury: 37%
[3]; event 60, mean
  % Visual Injury: 15%
[3]; event 60 line 07
  % Visual Injury: 19%
[3]; event 60 line 11
  % Visual Injury: 11%
[3]; event 60 line 22
  % Visual Injury: 11%
[3]; event 60 line 35
  % Visual Injury: 9%
[3]; event 60 line 41
  % Visual Injury: 13%
[3]; event 60 line 46
  % Visual Injury: 20%
[3]; event 60 line 70
  % Visual Injury: 9%
[3]; event 60 line 75
  % Visual Injury: 14%
[3]; event 60 line 77
  % Visual Injury: 19%
[3]; event 60 line 79
  % Visual Injury: 18%
[3]; event 60 line 82
  % Visual Injury: 20%
[3]; event 60 line 84
  % Visual Injury: 22%
[3]; event 61, mean
  % Visual Injury: 20%
[3]; event 61 line 02
  % Visual Injury: 10%
[3]; event 61 line 02B
  % Visual Injury: 10%
[3]; event 61 line 05
  % Visual Injury: 11%
[3]; event 61 line 14
  % Visual Injury: 10%
[3]; event 61 line 18
  % Visual Injury: 10%
[3]; event 61 line 24
  % Visual Injury: 60%
[3]; event 61 line 33
  % Visual Injury: 84%
[3]; event 61 line 34
  % Visual Injury: 23%
[3]; event 61 line 47
  % Visual Injury: 15%
[3]; event 61 line 49
  % Visual Injury: 9%
[3]; event 61 line 51
  % Visual Injury: 10%
[3]; event 61 line 60
  % Visual Injury: 16%
[3]; event 61 line 62
  % Visual Injury: 6%
[3]; event 61 line 99
  % Visual Injury: 10%
[3]; event 64, mean
  % Visual Injury: 14%
[3]; event 64 line 41
  % Visual Injury: 20%
[3]; event 64 line 47
  % Visual Injury: 10%
[4]; Wild Type line 82
  % Visual Injury: 100%
[4]; Wild Type line Jack
  % Visual Injury: 100%
[4]; Wild Type, mean
  % Visual Injury: 100%
[5]; STS ® line 25, glyphosate 8960, tribenuron-methyl 35, rimsulfuron 35 g/ha
  % Visual Injury: 100%
[5]; STS ® line 46, glyphosate 8960, tribenuron-methyl 35, rimsulfuron 35 g/ha
  % Visual Injury: 100%
[5]; STS ®, mean, glyphosate 8960, tribenuron-methyl 35, rimsulfuron 35 g/ha
  % Visual Injury: 100%
[6]
  transgenic plants showing no deleterious symptoms: approximately 50%
[7]
  damage to untransformed control plants: dead
[8]; media containing 1.0 and 2.0 mM glyphosate
  callus growth of embryos: very little callus growth
[8]; medium with 0.5 mM glyphosate
  embryos showing callus initiation: about half
[9]
  plants killed: 1 out of 16
  plants killed, percentage in brackets: 12%
